{"source": "patent US7863449B2", "about": "“Modulators of muscarinic receptors” (Vertex Pharmaceuticals Incorporated, priority 2004, dated 2011)", "key": {"M1 muscarinic receptor": {"molecular_target": "T1, M1 muscarinic receptor (Homo sapiens, UniProt P11229)", "T1 construct": "expressed in transfected cells; host or cells: CHO (M1-CHO)", "T1 sequence (P11229 1-460)": "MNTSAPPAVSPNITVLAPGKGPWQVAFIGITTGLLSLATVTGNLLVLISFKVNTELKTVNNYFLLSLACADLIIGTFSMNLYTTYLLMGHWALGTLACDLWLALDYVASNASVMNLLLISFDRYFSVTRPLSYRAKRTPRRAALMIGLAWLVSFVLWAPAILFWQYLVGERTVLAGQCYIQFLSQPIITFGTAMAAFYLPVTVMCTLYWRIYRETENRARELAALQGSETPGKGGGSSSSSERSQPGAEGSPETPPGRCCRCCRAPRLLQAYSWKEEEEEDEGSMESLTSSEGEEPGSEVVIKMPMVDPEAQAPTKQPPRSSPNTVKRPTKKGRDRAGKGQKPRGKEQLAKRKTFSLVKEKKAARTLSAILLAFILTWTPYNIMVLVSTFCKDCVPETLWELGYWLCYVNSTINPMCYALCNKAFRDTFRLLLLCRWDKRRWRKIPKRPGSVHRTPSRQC", "test": "Functional mobilization of intracellular calcium (FLIPR), M1-CHO cells", "assay_type": "cell-based", "settings": "for Emax: 100% efficacy is the maximum response obtained using Carbachol as a control; for M1 Activity: M1-CHO cells, FLIPR calcium mobilization", "summary_of_the_method": "(§1)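 CHO cells expressing M1 or M4, loaded with Fluo-3 AM or Calcium 3 dye with 1 mM probenecid, 0.5% DMSO final. Agonist mode: compound added directly; antagonist mode: 15 min pre-incubation (or co-application) before carbachol at EC80. Fluorescence recorded 60 s on FLIPR.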"}, "M4 muscarinic receptor": {"molecular_target": "T2, M4 muscarinic receptor (Homo sapiens, UniProt P08173)", "T2 construct": "expressed in transfected cells; host or cells: CHO (M4-CHO)", "T2 sequence (P08173 1-479)": "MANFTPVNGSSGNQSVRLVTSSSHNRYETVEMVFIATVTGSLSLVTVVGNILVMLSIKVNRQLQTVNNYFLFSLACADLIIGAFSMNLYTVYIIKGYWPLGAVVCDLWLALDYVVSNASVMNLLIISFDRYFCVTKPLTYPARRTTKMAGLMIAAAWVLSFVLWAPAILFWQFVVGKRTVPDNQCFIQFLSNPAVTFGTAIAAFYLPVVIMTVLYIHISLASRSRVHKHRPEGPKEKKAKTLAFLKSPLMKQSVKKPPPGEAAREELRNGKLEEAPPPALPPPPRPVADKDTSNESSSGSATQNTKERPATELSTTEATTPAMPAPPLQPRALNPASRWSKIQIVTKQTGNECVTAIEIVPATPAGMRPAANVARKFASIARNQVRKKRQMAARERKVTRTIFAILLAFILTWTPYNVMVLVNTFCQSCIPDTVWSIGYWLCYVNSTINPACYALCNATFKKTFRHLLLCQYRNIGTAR", "test": "Functional mobilization of intracellular calcium (FLIPR), M4-CHO cells", "assay_type": "cell-based", "settings": "for Emax: 100% efficacy is the maximum response obtained using Carbachol as a control; for M4 Activity: M4-CHO cells, FLIPR calcium mobilization", "summary_of_the_method": "as §1"}}, "data": [{"smiles": "CC(=O)N1Cc2ccccc2C2(CCN(Cc3cccnc3)CC2)C1", "note": "[compound 274]", "values": [{"measurement": "Emax", "setting": "M1 muscarinic receptor", "value": "< 25", "unit": "%"}, {"measurement": "M1 Activity", "setting": "M1 muscarinic receptor", "value": "+ (activity was measured to be greater than 5.0 μM)"}, {"measurement": "Emax", "setting": "M4 muscarinic receptor", "value": "< 25", "unit": "%"}, {"measurement": "M4 Activity", "setting": "M4 muscarinic receptor", "value": "+ (activity was measured to be greater than 5.0 μM)"}]}, {"smiles": "CCOC(=O)N1CCC(CN2CCC3(CC2)CN(C(=O)c2nc(C)oc2C)Cc2ccccc23)CC1", "note": "[compound 275]", "values": [{"measurement": "Emax", "setting": "M1 muscarinic receptor", "value": "25 to 100", "unit": "%"}, {"measurement": "M1 Activity", "setting": "M1 muscarinic receptor", "value": "+++ (activity was measured to be less than 1.0 μM)"}, {"measurement": "Emax", "setting": "M4 muscarinic receptor", "value": "25 to 100", "unit": "%"}, {"measurement": "M4 Activity", "setting": "M4 muscarinic receptor", "value": "+++ (activity was measured to be less than 1.0 μM)"}]}, {"smiles": "COC(=O)c1ccc(CN2CCC3(CC2)CN(C(C)=O)Cc2ccccc23)cc1", "note": "[compound 276]", "values": [{"measurement": "Emax", "setting": "M1 muscarinic receptor", "value": "25 to 100", "unit": "%"}, {"measurement": "M1 Activity", "setting": "M1 muscarinic receptor", "value": "++ (activity was measured to be from 1.0 μM to 5.0 μM)"}, {"measurement": "Emax", "setting": "M4 muscarinic receptor", "value": "25 to 100", "unit": "%"}, {"measurement": "M4 Activity", "setting": "M4 muscarinic receptor", "value": "++ (activity was measured to be from 1.0 μM to 5.0 μM)"}]}, {"smiles": "CCOC(=O)N1CCC(N2CCC3(CC2)OC(=O)c2ccc(C)cc23)CC1", "note": "[compound 277]", "values": [{"measurement": "Emax", "setting": "M1 muscarinic receptor", "value": "25 to 100", "unit": "%"}, {"measurement": "M1 Activity", "setting": "M1 muscarinic receptor", "value": "+++ (activity was measured to be less than 1.0 μM)"}, {"measurement": "Emax", "setting": "M4 muscarinic receptor", "value": "25 to 100", "unit": "%"}, {"measurement": "M4 Activity", "setting": "M4 muscarinic receptor", "value": "+++ (activity was measured to be less than 1.0 μM)"}]}, {"smiles": "CCOC(=O)N1CCC(N2CCC3(CC2)CN(C(=O)C(C)C)Cc2ccccc23)CC1", "note": "[compound 279]", "values": [{"measurement": "Emax", "setting": "M1 muscarinic receptor", "value": "25 to 100", "unit": "%"}, {"measurement": "M1 Activity", "setting": "M1 muscarinic receptor", "value": "+++ (activity was measured to be less than 1.0 μM)"}, {"measurement": "Emax", "setting": "M4 muscarinic receptor", "value": "25 to 100", "unit": "%"}, {"measurement": "M4 Activity", "setting": "M4 muscarinic receptor", "value": "+++ (activity was measured to be less than 1.0 μM)"}]}, {"smiles": "CCOC(=O)N1CCC(N2CCC3(CC2)CN(C(=O)NC2CCCC2)Cc2ccccc23)CC1", "note": "[compound 283]", "values": [{"measurement": "Emax", "setting": "M1 muscarinic receptor", "value": "25 to 100", "unit": "%"}, {"measurement": "M1 Activity", "setting": "M1 muscarinic receptor", "value": "+++ (activity was measured to be less than 1.0 μM)"}, {"measurement": "Emax", "setting": "M4 muscarinic receptor", "value": "25 to 100", "unit": "%"}, {"measurement": "M4 Activity", "setting": "M4 muscarinic receptor", "value": "+++ (activity was measured to be less than 1.0 μM)"}]}, {"smiles": "CCOC(=O)N1CCC(CN2CCC3(CC2)CN(C(=O)C2CCC2)Cc2ccccc23)CC1", "note": "[compound 284]", "values": [{"measurement": "Emax", "setting": "M1 muscarinic receptor", "value": "25 to 100", "unit": "%"}, {"measurement": "M1 Activity", "setting": "M1 muscarinic receptor", "value": "+++ (activity was measured to be less than 1.0 μM)"}, {"measurement": "Emax", "setting": "M4 muscarinic receptor", "value": "25 to 100", "unit": "%"}, {"measurement": "M4 Activity", "setting": "M4 muscarinic receptor", "value": "+++ (activity was measured to be less than 1.0 μM)"}]}, {"smiles": "CCOC(=O)N1CCC(N2CCC3(CC2)CN(C(C)=O)Cc2ccccc23)CC1", "note": "[compound 286]", "values": [{"measurement": "Emax", "setting": "M1 muscarinic receptor", "value": "25 to 100", "unit": "%"}, {"measurement": "M1 Activity", "setting": "M1 muscarinic receptor", "value": "+++ (activity was measured to be less than 1.0 μM)"}, {"measurement": "Emax", "setting": "M4 muscarinic receptor", "value": "25 to 100", "unit": "%"}, {"measurement": "M4 Activity", "setting": "M4 muscarinic receptor", "value": "+++ (activity was measured to be less than 1.0 μM)"}]}, {"smiles": "CCCOC(=O)N1CC(CN2CCC3(CC2)CN(C(C)=O)Cc2ccccc23)C1", "note": "[compound 287]", "values": [{"measurement": "Emax", "setting": "M1 muscarinic receptor", "value": "< 25", "unit": "%"}, {"measurement": "M1 Activity", "setting": "M1 muscarinic receptor", "value": "+ (activity was measured to be greater than 5.0 μM)"}, {"measurement": "Emax", "setting": "M4 muscarinic receptor", "value": "< 25", "unit": "%"}, {"measurement": "M4 Activity", "setting": "M4 muscarinic receptor", "value": "+ (activity was measured to be greater than 5.0 μM)"}]}, {"smiles": "CCOC(=O)N1CCC(CN2CCC3(CC2)CN(C(=O)N(C)C)Cc2ccccc23)CC1", "note": "[compound 288]", "values": [{"measurement": "Emax", "setting": "M1 muscarinic receptor", "value": "25 to 100", "unit": "%"}, {"measurement": "M1 Activity", "setting": "M1 muscarinic receptor", "value": "+++ (activity was measured to be less than 1.0 μM)"}, {"measurement": "Emax", "setting": "M4 muscarinic receptor", "value": "25 to 100", "unit": "%"}, {"measurement": "M4 Activity", "setting": "M4 muscarinic receptor", "value": "+++ (activity was measured to be less than 1.0 μM)"}]}, {"smiles": "CC(=O)N1Cc2ccccc2C2(CCN(CC3CCN(C(=O)OC4CCC4)CC3)CC2)C1", "note": "[compound 291]", "values": [{"measurement": "Emax", "setting": "M1 muscarinic receptor", "value": "< 25", "unit": "%"}, {"measurement": "M1 Activity", "setting": "M1 muscarinic receptor", "value": "+ (activity was measured to be greater than 5.0 μM)"}, {"measurement": "Emax", "setting": "M4 muscarinic receptor", "value": "< 25", "unit": "%"}, {"measurement": "M4 Activity", "setting": "M4 muscarinic receptor", "value": "+ (activity was measured to be greater than 5.0 μM)"}]}, {"smiles": "CC(=O)N1Cc2ccccc2C2(CCN(C3CCCCC3)CC2)C1", "note": "[compound 294]", "values": [{"measurement": "Emax", "setting": "M1 muscarinic receptor", "value": "25 to 100", "unit": "%"}, {"measurement": "M1 Activity", "setting": "M1 muscarinic receptor", "value": "+++ (activity was measured to be less than 1.0 μM)"}, {"measurement": "Emax", "setting": "M4 muscarinic receptor", "value": "25 to 100", "unit": "%"}, {"measurement": "M4 Activity", "setting": "M4 muscarinic receptor", "value": "+++ (activity was measured to be less than 1.0 μM)"}]}, {"smiles": "CCOC(=O)N1CCC(N2CCC3(CC2)CN(C(=O)C2(C)CC2)Cc2ccccc23)CC1", "note": "[compound 295]", "values": [{"measurement": "Emax", "setting": "M1 muscarinic receptor", "value": "25 to 100", "unit": "%"}, {"measurement": "M1 Activity", "setting": "M1 muscarinic receptor", "value": "++ (activity was measured to be from 1.0 μM to 5.0 μM)"}, {"measurement": "Emax", "setting": "M4 muscarinic receptor", "value": "< 25", "unit": "%"}, {"measurement": "M4 Activity", "setting": "M4 muscarinic receptor", "value": "++ (activity was measured to be from 1.0 μM to 5.0 μM)"}]}, {"smiles": "CCCNC(=O)N1Cc2ccccc2C2(CCN(C3CCN(C(=O)OCC)CC3)CC2)C1", "note": "[compound 296]", "values": [{"measurement": "Emax", "setting": "M1 muscarinic receptor", "value": "25 to 100", "unit": "%"}, {"measurement": "M1 Activity", "setting": "M1 muscarinic receptor", "value": "+++ (activity was measured to be less than 1.0 μM)"}, {"measurement": "Emax", "setting": "M4 muscarinic receptor", "value": "25 to 100", "unit": "%"}, {"measurement": "M4 Activity", "setting": "M4 muscarinic receptor", "value": "+++ (activity was measured to be less than 1.0 μM)"}]}]}
